{"source": "patent US11708375B2", "about": "“Reagents for reversibly protecting biological molecules” (BIOMÉRIEUX, priority 2016, dated 2023)", "key": {"[1]": {"assay": "Cleavage at 95° C. of aza-anthranilate amides and release of phenylethylamine under hot start PCR conditions (LCMS/HPLC monitoring)", "assay_type": "physicochemical", "details": "60 mM Tris pH 9 PCR buffer", "method": "Into a 1.5 mL tube are added: 20 μL 2.5 mM amide solution (10, 14 or 19) in DMSO and 180 μL of a buffer conventionally used in a genetic material amplification reaction (60 mM Tris pH 9, 50 mM […], 1 mM MgCl2). The mixture is then stirred at 95° C. in a thermomixer. LCMS monitoring (condition 1) is performed at t=15 min, 30 min, and 1 h\nThermal deprotection of the phenoxyacetate group leads to formation of the corresponding benzyl alcohol (see Diagram 7). The nucleophilic attack of alcohol on the carbonyl involved in the amide bond then allows releasing the phenylethylamine into the medium by generating the corresponding lactone.\nThis derivative can then be cyclized to form the corresponding […] by releasing phenylethylamine into the medium (Diagram 9 above)."}, "Human hemoglobin": {"target": "T1, Human hemoglobin (Homo sapiens, UniProt P68871+P69905)", "T1 construct": "purchased Sigma H7379", "T1 sequence (P69905 2-142 limits assumed)": "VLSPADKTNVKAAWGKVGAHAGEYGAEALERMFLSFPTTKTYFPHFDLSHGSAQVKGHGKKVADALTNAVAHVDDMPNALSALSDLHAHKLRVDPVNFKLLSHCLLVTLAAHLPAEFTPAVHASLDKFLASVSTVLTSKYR", "T1 sequence (P68871 2-147 limits assumed)": "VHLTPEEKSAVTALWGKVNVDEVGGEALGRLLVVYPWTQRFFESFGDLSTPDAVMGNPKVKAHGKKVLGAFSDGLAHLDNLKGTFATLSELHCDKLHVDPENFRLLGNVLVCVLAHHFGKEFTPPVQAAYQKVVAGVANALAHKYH", "assay": "Reversible acylation of hemoglobin by compound 13 (HPLC profile)", "assay_type": "biochemical", "method": "The mixtures are created as described below, where experiments AL600 1× to AL 600 0.25× respectively correspond to 33 μg hemoglobin reacted with increasing concentrations of the azaisatoic compound in a mixture of DMSO and PBS at pH 7.4 (PBS=Phosphate buffered saline resulting from dissolving a tablet, reference Sigma P4417, in 200 ml water (pH 7.4)) The mixtures are incubated at room temperature for 2 hours before collecting an aliquot for HPLC analysis on a Waters XBridge BEH C4 300 column (Milford. USA), with a gradient of 20 to 72% acetonitrile in a solution of 10 mM trifluoroacetic acid, at 120 min.\nOne can clearly see, as before, that acylation of the hemoglobin leads to formation of a mass of acylated protein and then this mass disappears after heat treatment in order to regenerate the native protein."}, "Taq polymerase": {"target": "T2, Taq polymerase (Thermus aquaticus, UniProt P19821)", "T2 construct": "purchased Genscript E00012", "T2 sequence (P19821 whole entry)": "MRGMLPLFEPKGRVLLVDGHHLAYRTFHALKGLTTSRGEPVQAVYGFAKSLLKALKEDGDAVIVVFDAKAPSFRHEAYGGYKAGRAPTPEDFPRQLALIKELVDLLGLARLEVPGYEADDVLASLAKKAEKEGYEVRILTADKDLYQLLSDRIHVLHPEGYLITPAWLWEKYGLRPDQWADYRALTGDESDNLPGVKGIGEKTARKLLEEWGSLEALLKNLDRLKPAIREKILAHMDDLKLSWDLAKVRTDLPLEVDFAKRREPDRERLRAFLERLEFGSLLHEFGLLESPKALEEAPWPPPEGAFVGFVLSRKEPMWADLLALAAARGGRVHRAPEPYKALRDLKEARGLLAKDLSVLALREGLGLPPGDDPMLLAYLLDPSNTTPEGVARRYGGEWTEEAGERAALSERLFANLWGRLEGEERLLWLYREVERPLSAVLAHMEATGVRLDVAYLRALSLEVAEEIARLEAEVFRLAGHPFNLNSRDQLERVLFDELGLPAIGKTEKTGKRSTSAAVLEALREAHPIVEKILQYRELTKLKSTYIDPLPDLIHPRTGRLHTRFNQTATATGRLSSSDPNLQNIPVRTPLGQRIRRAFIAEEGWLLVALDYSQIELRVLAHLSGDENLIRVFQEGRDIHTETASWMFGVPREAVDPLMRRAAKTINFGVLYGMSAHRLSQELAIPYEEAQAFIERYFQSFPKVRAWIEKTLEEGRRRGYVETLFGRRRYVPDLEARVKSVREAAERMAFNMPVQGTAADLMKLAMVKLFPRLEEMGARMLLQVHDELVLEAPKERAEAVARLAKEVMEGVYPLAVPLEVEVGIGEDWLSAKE", "assay": "Polymerase activity of TAQ modified by compound 13 (hairpin probe elongation fluorescence)", "assay_type": "biochemical", "details": "AL 604 0.375x", "method": "We used the Genscript Taq (2500 u/100 μl REF E00012), but in order to eliminate all traces of nucleophiles in this enzyme we did a change of buffer beforehand by passing through an Amicon 10 KD microcon (no. 42407). The enzyme suspension was thus deposited on the microcon and centrifuged until buffer depletion Five washes were performed with […] PBS pH 7.4, then the last retentate was recovered by inverting the tube and made up to QSP 20 μl with PBS to obtain a suspension at 125 u/μl. […]\nThe polymerization activity of the TAQ polymerase is determined using an oligonucleotide probe of 45 bases terminated by a “hairpin” structure. This is characterized by the presence of a fluorescence quencher at the beginning of the structure and a fluorophore at the end of the probe sequence, such that the quencher is spatially close to the fluorophore and no fluorescence signal can be measured in this configuration. […] Due to the elongation action, the probe hairpin structure is unfolded and the fluorophore is able to emit, and fluorescence is then measurable. This fluorescence measurement is carried out at a temperature of 60° C. for 20 minutes in the presence of the reagents required for activity of the enzyme, meaning dNTP, MgCl2, and a basic buffer at pH 9.5. […]\nThe ability to restore the activity of the enzyme after heating for 15 min at 95° C. for example is readily measurable by the same method."}}, "data": [{"compound": "CNc1ncc(I)c(COC(=O)COc2ccc(F)cc2)c1C(=O)NCCc1ccccc1", "note": "[derivative 14, (5-iodo-2-(methylamino)-3-(phenethylcarbamoyl)pyridine-4-yl)methyl 2-(4-fluorophenoxy)acetate]", "values": [{"measurement": "amide population", "setting": "[1]; 15 minutes at 95° C.", "result": "very low"}, {"measurement": "amide population", "setting": "[1]; 30 minutes at 95° C.", "result": "almost completely disappeared"}]}, {"compound": "Cn1c(=O)oc(=O)c2c(COC(=O)COc3ccc(F)cc3)c(I)cnc21", "note": "[compound 13, (6-iodo-1-methyl-2,4-dioxo-2,4-dihydro-1H-pyrido[2,3-d][1,3]oxazine-5-yl) methyl 2-(4-fluorophenoxy)acetate]", "values": [{"measurement": "acylation of hemoglobin (HPLC chromatogram)", "setting": "Human hemoglobin; 33 μg hemoglobin, AL 600 0.25x-1x, DMSO/PBS pH 7.4, room temperature, 2 hours", "result": "disappearance of the protein portion in favor of a massive shift to the right"}, {"measurement": "reversal of the acylation of hemoglobin after heat treatment (HPLC chromatogram)", "setting": "Human hemoglobin; AL 600 1x, 95° C. for 15 min in PCR buffer (Tris pH9), taken up in 8M GuHCl", "result": "restoring the chromatographic profile of the native hemoglobin"}, {"measurement": "polymerase activity of Taq after acylation, without activation", "setting": "Taq polymerase; 625 units Taq, DMSO/PBS pH 7.4, 3 hours room temperature, measured at 60° C. for 20 minutes", "result": "completely inactivated"}, {"measurement": "polymerase activity of Taq after acylation and heat activation", "setting": "Taq polymerase; after treatment at 95° C. for 15 min under hot start PCR conditions", "result": "restored"}]}, {"compound": "CNc1ncc(I)c(COC(=O)COc2ccccc2)c1C(=O)NCCc1ccccc1", "note": "[derivative 10, (5-iodo-2-(methylamino)-3-(phenethylcarbamoyl)pyridine-4-yl)methyl 2-phenoxyacetate]", "values": [{"measurement": "species observed by HPLC after heating (cleavage of the amide derivative)", "setting": "[1]; 15 minutes at 95° C., 10% DMSO", "result": "formation of the deprotected alcohol and the expected lactone"}, {"measurement": "population of the initial amide and the alcohol", "setting": "[1]; 1 h at 95° C.", "result": "almost completely disappeared"}]}, {"compound": "CNc1ncc(I)c(CNC(=O)OC(C)(C)C)c1C(=O)NCCc1ccccc1", "note": "[derivative 19, tert-butyl ((5-iodo-2-(methylamino)-3-(phenethylcarbamoyl)pyridine-4-yl)methyl)carbamate]", "values": [{"measurement": "non-cyclized deprotected form (intermediate amine) on HPLC monitoring", "setting": "[1]; 95° C.", "result": "not detected"}]}]}
